Measurements as given in the supplement of paper PMC10307832.

Tests used:
Experiment in all cases: relative viability (nuclei count vs DMSO), 5 days (fraction); higher = more cells survive
[1] = compound: O=C(NCCCNc1nc(Nc2cccc(NC(=O)N3CCCC3)c2)ncc1I)c1cccs1 [BX 795] + CC(=O)c1c(C)c2cnc(Nc3ccc(N4CCNCC4)cn3)nc2n(C2CCCC2)c1=O [Palbociclib] (partner 0.5 µM)
Method in brief: (§1)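 Relative viability divides the nuclei count in treated wells by that in vehicle wells. Lung cancer cell lines were seeded in 1536-well plates, dosed by pin tool the next day, and fixed and stained after 5 days in one step with final 0.05% Triton X-100, 1% formaldehyde and 1 ug/ml Hoechst. Dosing was a single drug or a fixed anchor-drug dose plus five library-drug doses (not always all listed) in √10 steps, and values are medians of duplicate plates imaged at 4×.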

[2] = compound: O=C(NCCCNc1nc(Nc2cccc(NC(=O)N3CCCC3)c2)ncc1I)c1cccs1 [BX 795] + CC(C)C[C@H](NC(=O)[C@H](Cc1ccccc1)NC(=O)c1cnccn1)B(O)O [Bortezomib] (partner 0.002 µM)
Method in brief: as §1

[3] = compound: O=C(NCCCNc1nc(Nc2cccc(NC(=O)N3CCCC3)c2)ncc1I)c1cccs1 [BX 795] + Cc1nc(NC(=O)N2CCC[C@H]2C(N)=O)sc1-c1ccnc(C(C)(C)C(F)(F)F)c1 [Alpelisib] (partner 2 µM)
Method in brief: as §1

[4] = compound: O=C(NCCCNc1nc(Nc2cccc(NC(=O)N3CCCC3)c2)ncc1I)c1cccs1 [BX 795] + N=C(N)NC(=N)NCCc1ccccc1 [Phenformin] (partner 250 µM)
Method in brief: as §1

[5] = compound: O=C(NCCCNc1nc(Nc2cccc(NC(=O)N3CCCC3)c2)ncc1I)c1cccs1 [BX 795] + Nc1nc2[nH]cc(CCc3ccc(C(=O)N[C@@H](CCC(=O)O)C(=O)O)cc3)c2c(=O)[nH]1 [Pemetrexed] (partner 0.2 µM)
Method in brief: as §1

Cell Line | relative viability ([1]; first compound 0.04 µM) | relative viability ([1]; first compound 0.4 µM) | relative viability ([1]; first compound 1.265 µM) | relative viability ([2]; first compound 0.04 µM) | relative viability ([2]; first compound 0.1265 µM) | relative viability ([2]; first compound 0.4 µM) | relative viability ([2]; first compound 1.265 µM) | relative viability ([3]; first compound 0.04 µM) | relative viability ([3]; first compound 0.1265 µM) | relative viability ([3]; first compound 0.4 µM) | relative viability ([3]; first compound 1.265 µM) | relative viability ([4]; first compound 0.04 µM) | relative viability ([4]; first compound 0.1265 µM) | relative viability ([4]; first compound 0.4 µM) | relative viability ([4]; first compound 1.265 µM) | relative viability ([5]; first compound 0.04 µM) | relative viability ([5]; first compound 0.4 µM) | relative viability ([5]; first compound 1.265 µM) | relative viability ([1]; first compound 0.1265 µM) | relative viability ([5]; first compound 0.1265 µM)
PC-3 [JPC-3] | 0.539 | 0.57 | 0.543 | 0.768 | 0.822 | 0.86 | 0.861 | 1.02 | 1.03 | 1.15 | 1.02 | 0.484 | 0.439 | 0.492 | 0.483 | 1.04 | 1.16 | 1.02 | – | –
PC-14 | 0.516 | 0.485 | 0.318 | 0.866 | 0.978 | 0.875 | 0.582 | 0.955 | 0.939 | 0.918 | 0.813 | 0.533 | 0.488 | 0.633 | 0.289 | 0.0872 | 0.0536 | 0.115 | 0.498 | 0.135
RERF-LC-KJ | – | 1.1 | 0.895 | 1.09 | 1.23 | 1.14 | 1.02 | 0.73 | 0.938 | 0.818 | 0.742 | 0.473 | 0.424 | 0.452 | 0.282 | – | 0.443 | 0.467 | 1.08 | 0.444
SK-LU-1 | 0.384 | 0.328 | 0.392 | 0.902 | 1.12 | – | 0.708 | 1.03 | 0.946 | 0.672 | 0.479 | 0.495 | 0.608 | – | 0.316 | 0.895 | 0.646 | 0.823 | 0.348 | 0.988
SW 1573 | 0.537 | 0.468 | 0.172 | 1.11 | 1.21 | 1.29 | 0.877 | 0.766 | 0.734 | 1.01 | 0.674 | 0.396 | 0.351 | 0.34 | 0.18 | 0.748 | 0.836 | 0.516 | 0.428 | 0.81
UMC-11 | 0.301 | 0.306 | 0.333 | 0.678 | 0.983 | 0.847 | 0.36 | 1.02 | 1.14 | 1.02 | 0.354 | 0.291 | 0.322 | 0.253 | 0.19 | 0.826 | 0.736 | 0.453 | 0.355 | 0.749
